Measurements reported in ChEMBL document CHEMBL1121607, “A novel opioid receptor site directed alkylating agent with irreversible narcotic antagonistic and reversible agonistic activities” (J Med Chem, 1980).

Organism: Cavia porcellus
Experiment: Tested for potent reversible agonist activity on electrically stimulated guinea pig ileal longitudinal muscle preparation
Format: functional, organism-based
Details: Muscle tissue

SMILES | IC50 [nM]
COC(=O)/C=C/C(=O)N[C@@H]1CC[C@@]2(O)[C@H]3Cc4ccc(O)c5c4[C@@]2(CCN3CC2CC2)[C@H]1O5 | 4.8
O=C1CC[C@@]2(O)[C@H]3Cc4ccc(O)c5c4[C@@]2(CCN3CC2CC2)[C@H]1O5 [NALTREXONE] | 50
COC(=O)/C=C/C(=O)N[C@@H]1CC[C@@]2(O)C3Cc4ccc(O)c5c4C2(CCN3C)[C@H]1O5 (stereo partly drawn) | 27
